In patent US10005767B2, “Compositions and methods for inhibition of the JAK pathway” (Rigel Pharmaceuticals, Inc., priority 2009, dated 2018):
Where a name gives a salt, the structure may show the parent alone.

test system: human primary T-cells, IL-2 stimulated proliferation (JAK-1 and JAK-3 dependent; reported as JAK3 activity); assay: Human primary T-cell proliferation stimulated by IL-2 (Example 3); type: cell-based; settings: Homo sapiens, T-cell, tested under conditions described in Example 3 (IL-2 stimulated human primary T-cell proliferation); read-out: ability to inhibit JAK3 activity, IC50 range (Table V)
How it was run: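 Peripheral-blood human T-cells pre-activated via TCR/CD28, IL-2-starved overnight, then cultured 72 h at 37 °C with compound in Yssel's medium containing IL-2 (80 U/mL in cell suspension). Proliferation read as viable-cell ATP by CellTiter-Glo luminescence; reduction versus control taken as JAK pathway inhibition.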

Row | Molecule | IC50 [nM]
1 | Cc1cnc(Nc2ccc3c(c2)CCCC(=O)N3C)nc1Nc1ccc2oc(=O)[nH]c2c1 [IV-34, 5-(5-methyl-2-(1-methyl-2-oxo-2,3,4,5-tetrahydro-1H-benzo[b]azepin-7-ylamino)pyrimidin-4-ylamino)benzo[d]oxazol-2(3H)-one] | < 500
2 | Cc1cnc(Nc2ccc3c(c2)OC(F)(F)O3)nc1Nc1ccc2oc(=O)[nH]c2c1 [IV-36, N2-(2,2-difluoro-2H-1,3-benzodioxol-5-yl)-5-methyl-N4-(2-oxo-2,3-dihydro-1,3-benzoxazol-5-yl)-2,4-pyrimidinediamine] | < 500
3 | Cc1cnc(Nc2cnc3c(c2)c(C)nn3C)nc1Nc1ccc2oc(=O)[nH]c2c1 [IV-40, N2-(1,3-dimethyl-1H-pyrazolo[3,4-b]pyridin-5-yl)-5-methyl-N4-(2-oxo-2,3-dihydro-1,3-benzoxazol-5-yl)-2,4-pyrimidinediamine] | < 500
4 | Cc1cnc(Nc2ccc3cnn(C)c3c2)nc1Nc1ccc2oc(=O)[nH]c2c1 [IV-41, 5-methyl-N2-(1-methylindazol-6-yl)-N4-(2-oxo-2,3-dihydro-1,3-benzoxazol-5-yl)-2,4-pyrimidinediamine] | < 500
5 | Cc1cnc(Nc2ccc3c(cnn3C)c2)nc1Nc1ccc2oc(=O)[nH]c2c1 [IV-42, 5-methyl-N2-(1-methylindazol-5-yl)-N4-(2-oxo-2,3-dihydro-1,3-benzoxazol-5-yl)-2,4-pyrimidinediamine] | < 500
6 | Cc1cnc(Nc2cnc3onc(C)c3c2)nc1Nc1ccc2oc(=O)[nH]c2c1 [IV-43, 5-methyl-N2-(3-methylisoxazolo[5,4-b]pyridin-5-yl)-N4-(2-oxo-2,3-dihydro-1,3-benzoxazol-5-yl)-2,4-pyrimidinediamine] | < 500
7 | COCCN1C(=O)COc2cc(Nc3ncc(C)c(Nc4ccc5oc(=O)[nH]c5c4)n3)ccc21 [IV-44, N2-[4-(2-methoxyethyl)-2H-1,4-benzoxazin-3 (4H)-one-7-yl]-5-methyl-N4-(2-oxo-2,3-dihydro-1,3-benzoxazol-5-yl)-2,4-pyrimidinediamine] | < 500
8 | COCCN1C(=O)C(C)(C)Oc2cc(Nc3ncc(C)c(Nc4ccc5oc(=O)[nH]c5c4)n3)cnc21 [IV-45, N2-[2,2-dimethyl-4-(2-methoxyethyl)-2H-pyrido[3,2-b][1,4]oxazin-3(4H)-one-7-yl]-5-methyl-N4-(2-oxo-2,3-dihydro-1,3-benzoxazol-5-yl)-2,4-pyrimidinediamine] | < 500
9 | Cc1cnc(Nc2cnc3c(c2)OCC(=O)N3)nc1Nc1ccc2oc(=O)[nH]c2c1 [IV-46, 5-methyl-N4-(2-oxo-2,3-dihydro-1,3-benzoxazol-5-yl)-N2-(2H-pyrido[3,2-b][1,4]oxazin-3 (4H)-one-7-yl)-2,4-pyrimidinediamine] | < 500
10 | Cc1cnc(Nc2ccc3c(C)n[nH]c3c2)nc1Nc1ccc2oc(=O)[nH]c2c1 [IV-48, 5-methyl-N2-(3-methylindazol-6-yl)-N4-(2-oxo-2,3-dihydro-1,3-benzoxazol-5-yl)-2,4-pyrimidinediamine] | < 500
11 | Cc1cnc(Nc2ccc3[nH]nc(C)c3c2)nc1Nc1ccc2oc(=O)[nH]c2c1 [IV-49, 5-methyl-N2-(3-methylindazol-5-yl)-N4-(2-oxo-2,3-dihydro-1,3-benzoxazol-5-yl)-2,4-pyrimidinediamine] | < 500
12 | Cc1cnc(Nc2ccc3c(c2)OC(C)(C)C(=O)N3)nc1Nc1ccc2oc(=O)[nH]c2c1 [IV-50, N2-[2,2-dimethyl-2H-1,4-benzoxazin-3(4H)-one-7-yl]-5-methyl-N4-(2-oxo-2,3-dihydro-1,3-benzoxazol-5-yl)-2,4-pyrimidinediamine] | < 500
13 | Cc1cccc(Nc2ncc(C)c(Nc3ccc4oc(=O)[nH]c4c3)n2)n1 [IV-51, 5-(5-methyl-2-(6-methylpyridin-2-ylamino)pyrimidin-4-ylamino)benzo[d]oxazol-2(3H)-one] | 500 to 5000
14 | Cc1ccc(Nc2ncc(C)c(Nc3ccc4oc(=O)[nH]c4c3)n2)nc1 [IV-52, 5-(5-methyl-2-(5-methylpyridin-2-ylamino)pyrimidin-4-ylamino)benzo[d]oxazol-2(3H)-one] | 500 to 5000
15 | Cc1cnc(Nc2ccc3cnccc3c2)nc1Nc1ccc2oc(=O)[nH]c2c1 [IV-53, 5-[2-(Isoquinolin-6-ylamino)-5-methyl-pyrimidin-4-ylamino]-3H-benzooxazol-2-one] | 5000 to 10000
16 | Cc1cnc(Nc2ccc3ccccc3c2)nc1Nc1ccc2oc(=O)[nH]c2c1 [IV-54, 5-[5-Methyl-2-(naphthalen-2-ylamino)-pyrimidin-4-ylamino]-3H-benzooxazol-2-one] | < 500
17 | COc1cc(Nc2ncc(C)c(Nc3ccc4oc(=O)[nH]c4c3)n2)cc2ccccc12 [IV-55, 5-[2-(4-Methoxy-naphthalen-2-ylamino)-5-methyl-pyrimidin-4-ylamino]-3H-benzooxazol-2-one] | < 500
18 | Cc1cnc(Nc2cc(O)c3ccccc3c2)nc1Nc1ccc2oc(=O)[nH]c2c1 [IV-56, 5-[2-(4-Hydroxy-naphthalen-2-ylamino)-5-methyl-pyrimidin-4-ylamino]-3H-benzooxazol-2-one] | 5000 to 10000
19 | Cc1cnc(Nc2ccc3ccncc3c2)nc1Nc1ccc2oc(=O)[nH]c2c1 [IV-57, 5-[2-(Isoquinolin-7-ylamino)-5-methyl-pyrimidin-4-ylamino]-3H-benzooxazol-2-one] | > 10000
20 | COc1ccnc(Nc2ncc(C)c(Nc3ccc4oc(=O)[nH]c4c3)n2)c1 [IV-58, N2-(4-methoxypyridin-2-yl)-5-methyl-N4-(2-oxo-2,3-dihydro-1,3-benzoxazol-5-yl)-2,4-pyrimidinediamine] | > 10000
21 | Cc1cnc(Nc2c(F)cc(F)cc2F)nc1Nc1ccc2oc(=O)[nH]c2c1 [IV-59, 5-[5-Methyl-2-(2,4,6-trifluoro-phenylamino)-pyrimidin-4-ylamino]-3H-benzooxazol-2-one] | > 10000
22 | Cc1cnc(Nc2c(C)cccc2C)nc1Nc1ccc2oc(=O)[nH]c2c1 [IV-60, 5-(2-(2,6-dimethylphenylamino)-5-methylpyrimidin-4-ylamino)benzo[d]oxazol-2(3H)-one] | 5000 to 10000
23 | Cc1cc(C)c(Nc2ncc(C)c(Nc3ccc4oc(=O)[nH]c4c3)n2)c(C)c1 [IV-61, 5-[5-Methyl-2-(2,4,6-trimethyl-phenylamino)-pyrimidin-4-ylamino]-3H-benzooxazol-2-one] | > 10000
24 | Cc1cnc(Nc2c(C)cccc2F)nc1Nc1ccc2oc(=O)[nH]c2c1 [IV-62, 5-(2-(2-fluoro-6-methylphenylamino)-5-methylpyrimidin-4-ylamino)benzo[d]oxazol-2(3H)-one] | 500 to 5000

same assay, conditions: tested under conditions described in Example 3 (IL-2 stimulated human primary T-cell proliferation); read-out: ability to inhibit JAK3 activity, IC50 range (Table V)

Row | Molecule | IC50 [nM]
25 | Cc1cnc(Nc2ccc3c(c2)OCO3)nc1Nc1ccc2oc(=O)[nH]c2c1 [IV-35, 5-methyl-N2-(3,4-methylenedioxy)phenyl-N4-(2-oxo-2,3-dihydro-1,3-benzoxazol-5-yl)-2,4-pyrimidinediamine] | < 500
26 | Cc1cnc(Nc2ccc3c(c2)OCCO3)nc1Nc1ccc2oc(=O)[nH]c2c1 [IV-37, N2-(3,4-ethylenedioxy)phenyl-5-methyl-N4-(2-oxo-2,3-dihydro-1,3-benzoxazol-5-yl)-2,4-pyrimidinediamine] | < 500
27 | Cc1cnc(Nc2ccc3c(c2)OC2(CCCCC2)O3)nc1Nc1ccc2oc(=O)[nH]c2c1 [IV-39, N2-[spiro(2,1′-cyclohexan)-1,3-benzodioxol-5-yl]-5-methyl-N4-(2-oxo-2,3-dihydro-1,3-benzoxazol-5-yl)-2,4-pyrimidinediamine] | < 500
28 | Cc1cnc(Nc2ccc3c(n2)NC(=O)CO3)nc1Nc1ccc2oc(=O)[nH]c2c1 [IV-47, 5-methyl-N4-(2-oxo-2,3-dihydro-1,3-benzoxazol-5-yl)-N2-(2H-pyrido[3,2-b][1,4]oxazin-3 (4H)-one-6-yl)-2,4-pyrimidinediamine] | > 10000
29 | Cc1cnc(Nc2ccncc2F)nc1Nc1ccc2oc(=O)[nH]c2c1 [IV-63, N2-(3-fluoropyridin-4-yl)-5-methyl-N4-(2-oxo-2,3-dihydro-1,3-benzoxazol-5-yl)-2,4-pyrimidinediamine] | 5000 to 10000
30 | N4-(benzo[d]oxazol-2(3H)-on-5-yl)-N2-(2-(bicyclo[2.2.1]heptan-2-ylmethyl)isoindolin-5-yl)-5-methylpyrimidine-2,4-diamine [III-11] | < 500

same assay, conditions: tested under conditions described in Example 3 (IL-2 stimulated human primary T-cell proliferation); trifluoroacetic acid salt; read-out: ability to inhibit JAK3 activity, IC50 range (Table V)

Row | Molecule | IC50 [nM]
31 | Cc1cnc(Nc2ccncc2F)nc1Nc1ccc2oc(=O)[nH]c2c1 [IV-64, N2-(3-fluoropyridin-4-yl)-5-methyl-N4-(2-oxo-2,3-dihydro-1,3-benzoxazol-5-yl)-2,4-pyrimidinediamine trifluoroacetic acid salt] | 500 to 5000
